From patent publication US8815909B2, “Diaminocyclohexane compounds and uses thereof” (Bristol-Myers Squibb Company, priority 2011, dated 2014)
Like-named read-outs stand apart in the source and are kept apart here.

Molecular target: T1, human Y4 receptor (Homo sapiens, UniProt P50391)
T1 construct: expressed in transfected cells
Assay: NPY4 cAMP HTRF Agonist Assay (inhibitory cAMP assay, Gi activation by Y4 agonism)
Format: cell-based
In short: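 Y4 agonism read as lowered forskolin-stimulated cAMP (HTRF, 1 h detection at room temperature). Stable human Y4 CHO clone, 5000 cells/well, incubated 30 min at room temperature with compounds plus forskolin and IBMX in PBS.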

[1] = TABLE 4, R2 is Pyridinyl-CN, read-out: hY4 CAMP EC50
[2] = human Y4 receptor, cAMP, read-out: hY4 CAMP EC50
[3] = human Y4 stable CHO clonal cells, forskolin + IBMX, read-out: NPY4 cAMP HTRF Agonist Assay EC50
[4] = second TABLE 1, R2 is Phenyl-CF3, read-out: hY4 CAMP EC50
[5] = TABLE 2, R2 is Phenyl-CN, read-out: hY4 CAMP EC50
[6] = TABLE 7, R2 is Pyridinyl-oxadiazole-CH3, read-out: hY4 CAMP EC50

T1 sequence (P50391 whole entry): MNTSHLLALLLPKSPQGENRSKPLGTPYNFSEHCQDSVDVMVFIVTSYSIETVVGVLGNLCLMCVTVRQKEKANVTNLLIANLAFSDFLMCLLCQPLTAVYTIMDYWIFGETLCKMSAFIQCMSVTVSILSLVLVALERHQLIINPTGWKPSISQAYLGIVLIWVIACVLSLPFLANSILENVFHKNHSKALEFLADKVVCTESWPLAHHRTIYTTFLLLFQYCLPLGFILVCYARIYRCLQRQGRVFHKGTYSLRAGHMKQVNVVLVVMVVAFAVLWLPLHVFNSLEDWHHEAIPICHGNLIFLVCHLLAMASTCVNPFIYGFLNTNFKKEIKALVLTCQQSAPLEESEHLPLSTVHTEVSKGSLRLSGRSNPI

Which EC50 [1] does the source give for `N#Cc1cc(N2CCC[C@H](N[C@@H]3CCCC[C@H]3Nc3ncc(-c4ccc(OC(F)(F)F)cc4)o3)C2)ccn1` [Example 307] here?
Its EC50 is 7 nM.

Which EC50 [2] does the source give for `CCc1nc(-c2ccc(N3CCC[C@H](N[C@@H]4CCCC[C@H]4Nc4cc(-c5cccc(C(N)=O)c5)ccn4)C3)nc2)no1` [Example 447] here?
Its EC50 is 8 nM.

Which EC50 [3] does the source give for `N#Cc1ccc(N2CCC[C@H](N[C@@H]3CCCC[C@H]3Nc3ncc(-c4ccccc4F)o3)C2)cc1Cl` [Example 39, 2-Chloro-4-((S)-3-((1R,2R)-2-(5-(2-fluorophenyl)oxazol-2-ylamino)cyclohexylamino)piperidin-1-yl)benzonitrile bis-trifluoroacetate] here?
The EC50 was 35 nM.

For `Oc1ccc(-c2ccnc(N[C@@H]3CCCC[C@H]3N[C@H]3CCCN(c4ccc(C(F)(F)F)cc4)C3)c2)cc1` [Example 135], which EC50 [4] is on record?
The EC50 was 27 nM.

Which EC50 [2] does the source give for `Nc1cccc(-c2cnc(N[C@@H]3CCCC[C@H]3N[C@H]3CCCN(c4cnc(C(F)(F)F)nc4)C3)o2)c1` [Example 412] here?
Its EC50 is 69 nM.

`FC(F)(F)Oc1ccc(-c2cnc(N[C@@H]3CCCC[C@H]3N[C@H]3CCCN(c4ccc(-n5ccc(C(F)(F)F)n5)cc4)C3)o2)cc1` [Example 70, (1R,2R)—N1-(5-(4-(Trifluoromethoxy)phenyl)oxazol-2-yl)-N2-((S)-1-(4-(3-(trifluoromethyl)-1H-pyrazol-1-yl)phenyl)piperidin-3-yl)cyclohexane-1,2-diamine bis-trifluoroacetate] was tested. Which EC50 [3] did it give?
The EC50 was 799 nM.

For `NC(=O)c1cccc(-c2cnc(N[C@@H]3CCCC[C@H]3N[C@H]3CCCN(c4ccc5ncnn5c4)C3)o2)c1` [Example 480], which EC50 [2] is on record?
The EC50 was 17 nM.

For `N#Cc1ccc(N2C[C@@H]3C[C@H](N[C@@H]4CCCC[C@H]4Nc4ncc(-c5cccc(C(N)=O)c5)o4)[C@H]2C3)cc1` [Example 264], which EC50 [5] is on record?
The EC50 was 7 nM.

Which EC50 [3] does the source give for `N#Cc1ccc(N2CCC[C@H](N[C@@H]3CCCC[C@H]3Nc3cc(/C=C\C(N)=O)ccn3)C2)cc1` [Example 110, (Z)-3-(2-(((1R,2R)-2-(((S)-1-(4-cyanophenyl)piperidin-3-yl)amino)cyclohexyl)amino)pyridin-4-yl)acrylamide] here?
The EC50 was 515 nM.

For `Cc1nc(-c2ccc(N3CCC[C@H](N[C@@H]4CCCC[C@H]4Nc4cc(-c5cccc(C(N)=O)c5)ccn4)C3)cn2)no1` [Example 378], which EC50 [2] is on record?
Its EC50 is 4 nM.

For `C[C@]1(N[C@@H]2CCCC[C@H]2Nc2cc(-c3cccc(C(N)=O)c3)ccn2)CCCN(c2ccc(C(F)(F)F)cc2)C1` [Example 120], which EC50 [4] is on record?
The EC50 was 3 nM.

`N#Cc1cnc(N2CCC[C@H](N[C@@H]3CCCC[C@H]3Nc3ncc(-c4ccc(OC(F)(F)F)cc4)o3)C2)nc1` [Example 81, 2-((S)-3-((1R,2R)-2-(5-(4-(Trifluoromethoxy)phenyl)oxazol-2-ylamino)cyclohexylamino)piperidin-1-yl)pyrimidine-5-carbonitrile bis-trifluoroacetate] was tested. Which EC50 [3] did it give?
The EC50 was 41 nM.

With `C[C@]1(N[C@@H]2CCCC[C@H]2Nc2ncc(-c3cccc(C(N)=O)c3)o2)CCCN(c2ccc(C#N)nc2)C1` [Example 304] as the compound, how does the EC50 [1] read?
The EC50 was 3 nM.

How did the EC50 [2] turn out when `COC(=O)Nc1cccc(-c2ccnc(N[C@@H]3CCCC[C@H]3N[C@H]3CCCN(c4ccc(-c5cccnc5)cc4)C3)c2)c1` [Example 514] was run?
The EC50 was 4 nM.

Which EC50 [3] does the source give for `N#Cc1ccc(N2CCC[C@H](N[C@@H]3CCCC[C@H]3Nc3cc(-c4ccc(Cl)cc4)ccn3)C2)cc1` [Example 46, 4-((S)-3-((1R,2R)-2-(4-(4-Chlorophenyl)pyridin-2-ylamino)cyclohexylamino)piperidin-1-yl)benzonitrile tris-trifluoroacetate] here?
The EC50 was 208 nM.

Which EC50 [2] does the source give for `CNC(=O)c1cccc(-c2cnc(N[C@@H]3CCCC[C@H]3N[C@H]3CCCN(c4cnc(C(F)(F)F)nc4)C3)o2)c1` [Example 409] here?
Its EC50 is 4 nM.

Which EC50 [5] does the source give for `CNC(=O)c1cccc(-c2ccnc(N[C@@H]3CCCC[C@H]3N[C@H]3CCCN(c4ccc(C#N)cc4)C3)c2)c1` [Example 261] here?
Its EC50 is 9 nM.

Which EC50 [4] does the source give for `NC(=O)c1cccc(-c2ccnc(N[C@@H]3CCCC[C@H]3N[C@H]3CCCN(c4ccc(C(F)(F)F)cc4)C3)c2)c1` [Example 119] here?
The EC50 was 4 nM.

Which EC50 [2] does the source give for `N#Cc1cnc(N2C[C@@H]3C[C@H](N[C@@H]4CCCC[C@H]4Nc4ncc(-c5cccc(C(N)=O)c5)o4)[C@H]2C3)nc1` [Example 433] here?
The EC50 was 144 nM.

Which EC50 [2] does the source give for `N#Cc1ncc(N2CCC[C@H](N[C@@H]3CCCC[C@H]3Nc3ncc(-c4cccc(C(N)=O)c4)o3)C2)cn1` [Example 438] here?
The EC50 was 5 nM.

`Cc1nc(-c2ccc(N3C[C@@H]4C[C@H](N[C@@H]5CCCC[C@H]5Nc5ncc(-c6ccc(OC(F)(F)F)cc6)o5)[C@H]3C4)cc2)no1` [Example 351] was tested. Which EC50 [2] did it give?
The EC50 was 448 nM.

`O=[N+]([O-])c1ccc(N2CCC[C@H](N[C@@H]3CCCC[C@H]3Nc3cc(-c4cccc(OC(F)(F)F)c4)ccn3)C2)cc1` [Example 23, (1R,2R)—N1-((S)-1-(4-Nitrophenyl)piperidin-3-yl)-N2-(4-(3-(trifluoromethoxy)phenyl)pyridin-2-yl)cyclohexane-1,2-diamine] was tested. Which EC50 [3] did it give?
Its EC50 is 71 nM.

With `NC(=O)c1cccc(-c2cnc(N[C@@H]3CCCC[C@H]3N[C@H]3C[C@@H]4C[C@H]3N(c3cnc(C(F)(F)F)nc3)C4)o2)c1` [Example 407] as the compound, how does the EC50 [2] read?
Its EC50 is 329 nM.

`Fc1ccc(-c2cnc(N[C@@H]3CCCC[C@H]3N[C@H]3CCCN(c4cnc(C(F)(F)F)nc4)C3)o2)c(F)c1` [Example 403] was tested. Which EC50 [2] did it give?
The EC50 was 264 nM.

For `CNC(=O)c1cccc(-c2cnc(N[C@@H]3CCCC[C@H]3N[C@H]3CCCN(c4ccc(-c5noc(C)n5)nc4)C3)o2)c1` [Example 385], which EC50 [6] is on record?
Its EC50 is 9 nM.

`Cc1nc(-c2ccc(N3CCC[C@H](N[C@@H]4CCCC[C@H]4Nc4ncc(-c5ccc(OC(F)(F)F)cc5)o4)C3)cn2)no1` [Example 394] was tested. Which EC50 [6] did it give?
Its EC50 is 427 nM.

How did the EC50 [2] turn out when `CCOC(=O)Nc1cccc(-c2cnc(N[C@@H]3CCCC[C@H]3N[C@H]3CCCN(c4ccc(-c5noc(C)n5)cc4)C3)o2)c1` [Example 340] was run?
The EC50 was 3 nM.

Which EC50 [2] does the source give for `Cc1nc2ccc(N3CCC[C@H](N[C@@H]4CCCC[C@H]4Nc4ncc(-c5cccc(C(N)=O)c5)o4)C3)cn2n1` [Example 489] here?
The EC50 was 3 nM.

`FC(F)(F)c1ccc(N2CCC[C@H](N[C@@H]3CCCC[C@H]3Nc3cc(-c4cccc(C5CCCN5)c4)ccn3)C2)cc1` (stereo partly drawn) [Example 183] was tested. Which EC50 [4] did it give?
Its EC50 is 153 nM.

For `N#Cc1ccc(N2CCC[C@H](N[C@@H]3CCCC[C@H]3Nc3cc(-c4ccccn4)ccn3)C2)cc1` [Example 270], which EC50 [5] is on record?
Its EC50 is 468 nM.

For `FC(F)(F)Oc1cccc(-c2cnc(N[C@@H]3CCCC[C@H]3N[C@H]3CCCN(c4cnc(C(F)(F)F)nc4)C3)o2)c1` [Example 404], which EC50 [2] is on record?
The EC50 was 954 nM.

How did the EC50 [3] turn out when `N#Cc1ccc(N2CCC[C@H](N[C@@H]3CCCC[C@H]3Nc3cc(-c4cc[nH]n4)ccn3)C2)cc1` [Example 33, 4-((S)-3-((1R,2R)-2-(4-(1H-Pyrazol-3-yl)pyridin-2-ylamino)cyclohexylamino)piperidin-1-yl)benzonitrile tris-trifluoroacetate] was run?
The EC50 was 322 nM.

`N#Cc1ccc(N2CCC[C@H](N[C@@H]3CCCC[C@H]3Nc3cc(-c4cccc5c4CC(=O)N5)ccn3)C2)cc1` [Example 212] was tested. Which EC50 [5] did it give?
Its EC50 is 13 nM.

For `COC(=O)Nc1cccc(-c2cnc(N[C@@H]3CCCC[C@H]3N[C@H]3CCCN(c4ccc(C(F)(F)F)cc4)C3)o2)c1` [Example 100, Methyl (3-(2-((1R,2R)-2(S)-1-(4-trifluoromethyl)phenylpiperidin-3-ylamino)cyclohexylamino)oxazol-5-yl)phenylcarbamate], which EC50 [3] is on record?
Its EC50 is 3 nM.

Which EC50 [2] does the source give for `Fc1ccccc1-c1cnc(N[C@@H]2CCCC[C@H]2N[C@H]2CCCN(c3cnc(C(F)(F)F)nc3)C2)o1` [Example 402] here?
The EC50 was 161 nM.

Which EC50 [4] does the source give for `Cn1cc(-c2ccnc(N[C@@H]3CCCC[C@H]3N[C@H]3CCCN(c4ccc(C(F)(F)F)cc4)C3)c2)cn1` [Example 188] here?
The EC50 was 1040 nM.

For `O=[N+]([O-])c1ccc(N2CCC[C@H](N[C@@H]3CCCC[C@H]3NC3=NOC(c4ccccc4)C3)C2)cc1` (stereo partly drawn) [Example 286], which EC50 (TABLE 3, R2 is Phenyl-NO2, read-out: hY4 CAMP EC50) is on record?
Its EC50 is 74 nM.

`COc1ccc(-c2cnc(N[C@@H]3CCCC[C@H]3N[C@H]3CCCN(c4ccc(C(F)(F)F)nc4)C3)o2)cc1C#N` [Example 335] was tested. Which EC50 (TABLE 5, R2 is Pyridinyl-CF3, read-out: hY4 CAMP EC50) did it give?
Its EC50 is 1600 nM.

For `NC(=O)c1cccc(-c2ccnc(N[C@@H]3CCCC[C@H]3N[C@H]3CCCN(c4ccc(OC(F)(F)F)cc4)C3)c2)c1` [Example 462], which EC50 [2] is on record?
The EC50 was 8 nM.

For `N#Cc1ccc(N2C[C@@H]3CC(N[C@@H]4CCCC[C@H]4Nc4ncc(-c5ccc(OC(F)(F)F)cc5)o4)[C@H]2C3)cc1` (stereo partly drawn) [Example 95, 4-((1R,4R)-6-((1R,2R)-2-(5-(4-(Trifluoromethoxy)phenyl)oxazol-2-ylamino)cyclohexylamino)-2-azabicyclo[2.2.1]heptan-2-yl)benzonitrile], which EC50 [3] is on record?
Its EC50 is 10 nM.

How did the EC50 [3] turn out when `O=[N+]([O-])c1ccc(N2CC3CCC2[C@@H](N[C@@H]2CCCC[C@H]2Nc2ncc(-c4ccc(OC(F)(F)F)cc4)o2)C3)cc1` (stereo partly drawn) [Example 17, (1R,2R)—N1-((6S)-2-(4-Nitrophenyl)-2-azabicyclo[2.2.2]octan-6-yl)-N2-(5-(4-(trifluoromethoxy)phenyl)oxazol-2-yl)cyclohexane-1,2-diamine] was run?
Its EC50 is 911 nM.

Which EC50 [2] does the source give for `Cc1nc(-c2ncc(N3CCC[C@H](N[C@@H]4CCCC[C@H]4Nc4cc(-c5ccc(F)c(F)c5)ccn4)C3)cn2)no1` [Example 467] here?
Its EC50 is 2 nM.

How did the EC50 [3] turn out when `N#Cc1ccc(N2CCC[C@H](N[C@@H]3CCCC[C@H]3Nc3ncc(-c4ccc(OC(F)(F)F)cc4)o3)C2)cc1Cl` [Example 38, 2-Chloro-4-((S)-3-((1R,2R)-2-(5-(4-(trifluoromethoxy)phenyl)oxazol-2-ylamino)cyclohexylamino)piperidin-1-yl)benzonitrile bis-trifluoroacetate] was run?
The EC50 was 8 nM.

How did the EC50 [5] turn out when `COC(=O)Nc1cccc(-c2cnc(N[C@@H]3CCCC[C@H]3N[C@H]3CCCN(c4ccc(C#N)cc4)C3)o2)c1` [Example 282] was run?
The EC50 was 1 nM.

For `FC(F)(F)c1ccc(N2CCC[C@H](N[C@@H]3CCCC[C@H]3Nc3cc(-c4cccc(-n5cccn5)c4)ccn3)C2)cc1` [Example 158], which EC50 [4] is on record?
The EC50 was 53 nM.
